This passage reports IC50 and TEC/Btk results from patent publication US20180194762A1 (Pharmacyclics LLC, priority 2017, published 2018).

Assay type in all cases: biochemical
One experiment deals with T1, TEC (Homo sapiens, UniProt P42680).
T1 sequence (P42680 1-631): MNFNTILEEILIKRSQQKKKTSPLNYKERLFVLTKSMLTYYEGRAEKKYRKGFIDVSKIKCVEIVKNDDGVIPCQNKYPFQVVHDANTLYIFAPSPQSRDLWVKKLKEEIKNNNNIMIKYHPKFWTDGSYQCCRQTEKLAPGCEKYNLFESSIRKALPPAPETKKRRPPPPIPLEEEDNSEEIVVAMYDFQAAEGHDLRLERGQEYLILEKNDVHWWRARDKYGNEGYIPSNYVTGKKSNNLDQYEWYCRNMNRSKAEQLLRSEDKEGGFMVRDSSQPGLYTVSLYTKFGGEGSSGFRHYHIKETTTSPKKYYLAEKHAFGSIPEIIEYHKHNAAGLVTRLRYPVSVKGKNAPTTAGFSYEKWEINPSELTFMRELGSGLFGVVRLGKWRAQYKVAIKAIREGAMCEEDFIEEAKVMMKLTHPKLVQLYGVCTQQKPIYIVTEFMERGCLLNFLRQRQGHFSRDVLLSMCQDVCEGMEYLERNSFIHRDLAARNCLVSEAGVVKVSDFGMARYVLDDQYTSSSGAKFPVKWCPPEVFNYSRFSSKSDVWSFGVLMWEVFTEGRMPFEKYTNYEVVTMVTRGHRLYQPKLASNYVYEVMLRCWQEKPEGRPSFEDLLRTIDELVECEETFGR
The experiment in a line: Inhibition of a panel of kinases (in vitro HotSpot kinase assay, 33P-ATP, 1 μM ATP). The conditions noted are these: for IC50: HotSpot kinase assay, 1 μM ATP; for TEC/Btk: ratio of TEC IC50 to Btk IC50 (selectivity). An outline of the steps: (§1)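 Radiometric read-out: 33P transfer to a suitable substrate by each purified enzyme, ATP at 1 μM. Values are degree of inhibition.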

Another experiment concerns the target T2, panel of kinases (Homo sapiens, UniProt P51813).
T2 sequence (P51813 1-675): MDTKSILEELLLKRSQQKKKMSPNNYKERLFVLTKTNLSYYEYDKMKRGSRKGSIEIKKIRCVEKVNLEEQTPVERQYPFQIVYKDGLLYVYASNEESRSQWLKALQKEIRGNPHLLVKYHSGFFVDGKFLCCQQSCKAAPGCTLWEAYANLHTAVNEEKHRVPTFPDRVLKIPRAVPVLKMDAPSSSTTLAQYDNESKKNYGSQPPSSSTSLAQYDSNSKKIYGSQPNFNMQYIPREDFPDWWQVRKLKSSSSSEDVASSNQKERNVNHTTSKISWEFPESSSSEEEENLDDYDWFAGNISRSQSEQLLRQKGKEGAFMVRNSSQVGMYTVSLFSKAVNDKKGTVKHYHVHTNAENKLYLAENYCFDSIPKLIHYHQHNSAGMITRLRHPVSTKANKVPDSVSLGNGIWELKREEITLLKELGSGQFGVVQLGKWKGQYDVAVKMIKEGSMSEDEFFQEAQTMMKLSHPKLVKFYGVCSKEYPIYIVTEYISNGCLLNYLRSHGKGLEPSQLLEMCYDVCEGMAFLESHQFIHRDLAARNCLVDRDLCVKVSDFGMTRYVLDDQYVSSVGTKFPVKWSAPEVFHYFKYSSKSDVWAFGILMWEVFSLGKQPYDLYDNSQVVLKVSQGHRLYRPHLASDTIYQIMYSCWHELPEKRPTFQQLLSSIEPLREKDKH
The experiment can be described thus: Inhibition of a panel of kinases (in vitro HotSpot kinase assay, 33P-ATP, 1 μM ATP), other kinases. The conditions noted are these: BMX wild-type, read-out: BMX-WT IC50. An outline of the steps: as §1

A further experiment concerns the target T3, Btk (Homo sapiens, UniProt Q06187).
T3 construct: purified from insect cells as a full-length construct containing a N-terminal 6X-His tag; His6 (N); made in house; host or cells: insect cells (Method C)
The experiment in a line: Btk in vitro inhibitory activity (one of Method A TR-FRET, Method B electrophoretic mobility shift, Method C radiometric filter binding). An outline of the steps: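 Three alternative formats were used. A radiometric filter-binding read used 8 nM full-length His-BTK with 0.2 mg/mL poly(Glu-Tyr) 4:1 (C); microfluidic separation of 1 μM FAM-peptide by 1 nM BTK gave IC50 from 12-point curves (B); TR-FRET at Km ATP, 0.5 nM Btk, gave Ki(app)-derived IC50 (A).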

The mark [1] stands for this setting: wild-type Btk, read-out: Btk-WT IC50.
The mark [2] stands for this setting: method is one of A, B or C, not stated which, read-out: IC50 values against Btk.

A word on the IC50: it is the concentration that gives 50% inhibition.

Like-named read-outs stand apart in the source and are kept apart here.

T3 sequence (Q06187 whole entry): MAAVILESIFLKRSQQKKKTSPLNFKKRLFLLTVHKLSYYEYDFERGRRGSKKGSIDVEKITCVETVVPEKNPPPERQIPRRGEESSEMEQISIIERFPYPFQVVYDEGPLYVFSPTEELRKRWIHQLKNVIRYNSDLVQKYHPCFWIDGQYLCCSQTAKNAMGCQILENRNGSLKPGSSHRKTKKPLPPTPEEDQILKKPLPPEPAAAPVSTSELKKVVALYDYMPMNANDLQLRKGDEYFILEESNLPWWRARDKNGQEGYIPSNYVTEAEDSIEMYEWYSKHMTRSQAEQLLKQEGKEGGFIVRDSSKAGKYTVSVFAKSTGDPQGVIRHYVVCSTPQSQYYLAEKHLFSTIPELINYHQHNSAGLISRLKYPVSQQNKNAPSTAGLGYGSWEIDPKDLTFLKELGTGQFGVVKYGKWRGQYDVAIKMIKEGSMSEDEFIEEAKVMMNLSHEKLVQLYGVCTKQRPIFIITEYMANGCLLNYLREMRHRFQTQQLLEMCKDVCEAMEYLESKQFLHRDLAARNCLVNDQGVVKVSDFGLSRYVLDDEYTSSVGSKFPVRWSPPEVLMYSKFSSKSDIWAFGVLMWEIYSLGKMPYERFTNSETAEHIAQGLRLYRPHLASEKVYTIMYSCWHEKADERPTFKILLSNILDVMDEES

For the compound `CN(C)C(=O)N1CCC[C@@H](Nc2n[nH]c3nccc(-c4ccc(CNC(=O)c5noc(C(C)(C)C)n5)c(F)c4)c23)C1` [Example 116, (3R)-3-{[4-(4-{[(5-tert-butyl-1,2,4-oxadiazol-3-yl) formamido]methyl}-3-fluorophenyl)-1H-pyrazolo[3,4-b]pyridin-3-yl]amino}-N,N-dimethylpiperidine-1-carboxamide], the half-maximal inhibitory concentration (IC50) turned out to be 4470 nM at TEC, 3790 nM at panel of kinases and 11 nM at Btk (setting [1]). In addition, on TEC, the TEC/Btk came to 406.
The matching figures for `CN(C)C(=O)N1CC[C@@H](Nc2n[nH]c3nccc(-c4ccc(C5(NC(=O)c6nc(C(C)(C)C)no6)CC5)cc4)c23)C1` [Example 117, 3-tert-butyl-N-{1-[4-(3-{[(3R)-1-(dimethylcarbamoyl)pyrrolidin-3-yl]amino}-1H-pyrazolo[3,4-b]pyridin-4-yl)phenyl]cyclopropyl}-1,2,4-oxadiazole-5-carboxamide]: over 10000 nM, 5960 nM, 46.2 nM and over 100.
The matching figures for `CN(C)C(=O)N1CC[C@@H](Nc2n[nH]c3nccc(-c4ccc(CNC(=O)c5cnn(C(C)(C)C)c5)c(F)c4)c23)C1` [Example 119, 1-tert-butyl-N-{[4-(3-{[(3R)-1-(dimethylcarbamoyl)pyrrolidin-3-yl]amino}-1H-pyrazolo[3,4-b]pyridin-4-yl)-2-fluorophenyl]methyl}-1H-pyrazole-4-carboxamide]: 8590 nM, 6530 nM, 49 nM and 175.
On to `CN(C)C(=O)N1CC[C@@H](Nc2n[nH]c3nccc(-c4ccc(CNC(=O)c5nc(C(C)(C)C)no5)c(F)c4)c23)C1` [Example 120, 3-tert-butyl-N-{[4-(3-{[(3R)-1-(dimethylcarbmoyl)pyrrolidin-3-yl]amino}-1H-pyrazolo[3,4-b]pyridin-4-yl)-2-fluorophenyl]methyl}-1,2,4-oxadiazole-5-carboxamide], for which the IC50 against TEC was 7120 nM; on panel of kinases, 5220 nM; on Btk (setting [2]) it was under 10 nM; at Btk (setting [1]), 7.38 nM. At TEC, the TEC/Btk was found to be 965.
In the case of `CC(C)(C)c1nc(C(=O)NC2(c3ccc(-c4ccnc5[nH]nc(N[C@@H]6CCCNC6)c45)cc3F)CC2)no1` [Example 121, 5-tert-butyl-N-{1-[2-fluoro-4-(3-{[(3R)-piperidin-3-yl]amino}-1H-pyrazolo[3,4-b]pyridin-4-yl)phenyl]cyclopropyl}-1,2,4-oxadiazole-3-carboxamide], the IC50 was over 10000 nM on TEC, over 10000 nM at panel of kinases and 210 nM on Btk (setting [1]). In addition, at TEC, the TEC/Btk was over 100.
Regarding `CC(C)(C)c1nc(C(=O)NC(C)(C)c2ccc(-c3ccnc4[nH]nc(N[C@@H]5CCNC5)c34)cc2)no1` [Example 122, 5-tert-butyl-N-{2-[4-(3-{[(3R)-pyrrolidin-3-yl]amino}-1H-pyraozlo[3,4-b]pyridin-4-yl)phenyl]propan-2-yl}-1,2,4-oxadiazole-3-carboxamide], the IC50 against TEC, at panel of kinases and at Btk (setting [1]) was over 10000 nM throughout.
For `CC(C)(C)c1nc(NC(=O)Cc2ccc(-c3ccnc4[nH]nc(N[C@@H]5CCNC5)c34)cc2F)no1` [Example 123, N-(5-tert-butyl-1,2,4-oxadiazol-3-yl)-2-[2-fluoro-4-(3-{[(3R)-pyrrolidin-3-yl]amino}-1H-pyrazolo[3,4-b]pyridin-4-yl)phenyl]acetamide], the IC50 on TEC, on panel of kinases and at Btk (setting [1]) was over 10000 nM throughout.
Take `CC(C)(C)c1nc(C(=O)NCc2ccc(-c3ccnc4[nH]nc(NC5CNC5)c34)cc2F)no1` [Example 124, N-[(4-{3-[(azetidin-3-yl)amino]-1H-pyrazolo[3,4-b]pyridin-4-yl}-2-fluorophenyl)methyl]-5-tert-butyl-1,2,4-oxadiazole-3-carboxamide]: the IC50 is 843 nM against TEC, 3350 nM on panel of kinases, under 10 nM at Btk (setting [2]) and 0.828 nM on Btk (setting [1]). Moreover, the TEC/Btk at TEC is on record as 1018.
`C[C@@H]1[C@H](Nc2n[nH]c3nccc(-c4ccc(CNC(=O)c5noc(C(C)(C)C)n5)c(F)c4)c23)CCCN1C(=O)N(C)C` [Example 125, (2R,3R)-3-{[4-(4-{[(5-tert-butyl-1,2,4-oxadiaozl-3-yl) formamido]methyl}-3-fluorophenyl)-1H-pyrazolo[3,4-b]pyridin-3-yl]amino}-N,N,2-trimethylpiperidine-1-carboxamide]: the half-maximal inhibitory concentration (IC50) is over 10000 nM on TEC, over 10000 nM on panel of kinases and 89.3 nM at Btk (setting [1]). Besides, the TEC/Btk at TEC is over 100.
For the compound `C[C@@H]1[C@H](Nc2n[nH]c3nccc(-c4ccc(CNC(=O)c5noc(C(C)(C)C)n5)c(F)c4)c23)CCCN1C(=O)C1CC1` [Example 126, 5-tert-butyl-N-{[4-(3-{[(2R,3R)-1-cyclopropanecarbonyl-2-methylpiperidin-3-yl]amino}-1H-pyrazolo[3,4-b]pyridin-4-yl)-2-fluorophenyl]methyl}-1,2,4-oxadiazole-3-carboxamide], the concentration for half-maximal inhibition (IC50) on TEC turned out to be 4430 nM; on panel of kinases, 5450 nM; on Btk (setting [1]), 38.4 nM. On TEC, the TEC/Btk came to 115.
Consider `C[C@H]1CC[C@@H](Nc2n[nH]c3nccc(-c4ccc(CNC(=O)c5noc(C(C)(C)C)n5)c(F)c4)c23)CN1C(=O)C1CC1` [Example 127, 5-tert-butyl-N-{[4-(3-{[(3R,6S)-1-cyclopropanecarbonyl-6-methylpiperidin-3-yl]amino}-1H-pyrazolo[3,4-b]pyridin-4-yl)-2-fluorophenyl]methyl}-1,2,4-oxadiazole-3-carboxamide], for which the IC50 against TEC was 698 nM; on panel of kinases, 1550 nM; on Btk (setting [2]), under 10 nM; at Btk (setting [1]), 2.05 nM. In addition, the TEC/Btk on TEC turned out to be 340.
As to `C[C@H]1CC[C@@H](Nc2n[nH]c3nccc(-c4ccc(CNC(=O)c5noc(C(C)(C)C)n5)c(F)c4)c23)CN1S(=O)(=O)C1CC1` [Example 128, 5-tert-butyl-N-{[4-(3-{[(3R,6S)-1-(cylcopropanesulfonyl)-6-methylpiperidin-3-yl]amino}-1H-pyrazolo[3,4-b]pyridin-4-yl)-2-fluorophenyl]methyl}-1,2,4-oxadiazole-3-carboxamide], the half-inhibitory concentration (IC50) against TEC is 500 nM; on panel of kinases, 1120 nM; on Btk (setting [2]) it was under 10 nM; on Btk (setting [1]) it was 1.29 nM. The TEC/Btk on TEC was found to be 388.
Turning to `CC(C)(C)c1nc(C(=O)NCc2ccc(-c3ccnc4[nH]nc(N[C@@H]5CCNC5)c34)c(F)c2)no1` [Example 129, 5-tert-butyl-N-{[3-fluoro-4-(3-{[(3R)-pyrrolidin-3-yl]amino}-1H-pyrazolo[3,4-b]pyridin-4-yl)phenyl]methyl}-1,2,4-oxadiazole-3-carboxamide], the concentration for half-maximal inhibition (IC50) against TEC was over 10000 nM; on panel of kinases, over 10000 nM; at Btk (setting [1]), 85.9 nM. For the same compound, on TEC, the TEC/Btk is reported as over 100.
